Data on eight compounds can be found in PubChem BioAssay (NCI).

Test systems include 786-0 renal; A549 NSCLC; ACHN renal; DU-145 prostate; HS 578T breast; IGROV1 ovarian; LOX IMVI melanoma; MALME-3M melanoma; MDA-MB-435; NCI-H226 lung; NCI-H23 lung; NCI-H522 lung; NCI/ADR-RES ovarian; OVCAR-3 ovarian; OVCAR-8 ovarian; SF-539 CNS; TK-10 renal; UO-31 renal; SW-620 colon.
Experiment in all cases: inhibition of tumour cell growth, NCI panel, 48 h

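Results reflect a 48-hour exposure of cells in 96-well plates to compound at five concentrations. Definition used: TGI = concentration required for complete inhibition of growth.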 Where only a bound is given, the exact number is not on record here.

Consider `O=[N+]([O-])/C(Cl)=C(\Sc1ccccc1)C(Cl)=C(Cl)Cl`, for which the TGI in the assay with 786-0 renal was 1.07 µM; with A549 NSCLC, 1.53 µM; with ACHN renal it was 3.07 µM; in the assay with DU-145 prostate, 3.08 µM; in the assay with HS 578T breast it was 1.8 µM; in the assay on IGROV1 ovarian it was 2.62 µM. For the same compound, the TGI with LOX IMVI melanoma stood at 0.97 µM; in the assay with MALME-3M melanoma it was 1.97 µM; in the assay on MDA-MB-435, 0.453 µM; in the assay on NCI-H226 lung it was 4.47 µM; with NCI-H23 lung it was 1.87 µM; with NCI-H522 lung, 0.802 µM. For the same compound, the TGI in the assay on NCI/ADR-RES ovarian worked out at 0.551 µM; in the assay on OVCAR-3 ovarian, 2.85 µM; in the assay with OVCAR-8 ovarian, 0.351 µM; with SF-539 CNS it was 2.98 µM; in the assay on TK-10 renal it was 3.21 µM; in the assay on UO-31 renal it was 0.654 µM.

Turning to `COc1ccc(-n2c(C)nc3ccc(N=Cc4ccccc4)cc3c2=O)cc1`, the TGI with 786-0 renal, in the assay with ACHN renal, with DU-145 prostate, with HS 578T breast, in the assay on IGROV1 ovarian and in the assay on LOX IMVI melanoma was greater than 100 µM in each case. The TGI in the assay with MALME-3M melanoma, with MDA-MB-435, in the assay with NCI-H226 lung, in the assay with NCI-H23 lung, in the assay with NCI-H522 lung and in the assay with NCI/ADR-RES ovarian was greater than 100 µM each time. Besides, the TGI in the assay on OVCAR-3 ovarian, with OVCAR-8 ovarian, in the assay on SW-620 colon, with TK-10 renal and in the assay with UO-31 renal was greater than 100 µM in each case.

In the case of `O=c1oc2ccccc2c(O)c1C(c1ccc([N+](=O)[O-])cc1)c1c(O)c2ccccc2oc1=O`, the TGI in the assay with 786-0 renal, in the assay with DU-145 prostate, in the assay with HS 578T breast, with IGROV1 ovarian, in the assay with LOX IMVI melanoma and in the assay on MALME-3M melanoma was greater than 100 µM each time. Moreover, the TGI in the assay on MDA-MB-435, with NCI-H226 lung, in the assay with NCI-H23 lung, in the assay on NCI-H522 lung, with NCI/ADR-RES ovarian and in the assay with OVCAR-3 ovarian was greater than 100 µM in each case. Moreover, the TGI in the assay on OVCAR-8 ovarian, with SW-620 colon, in the assay on TK-10 renal and in the assay on UO-31 renal was greater than 100 µM in each case.

For `Nc1nonc1-c1noc(-c2nonc2N)[n+]1[O-]`, the TGI in the assay on 786-0 renal is greater than 100 µM; with A549 NSCLC it was 90.7 µM; with ACHN renal, greater than 100 µM; in the assay with DU-145 prostate, greater than 100 µM; in the assay with HS 578T breast it was greater than 100 µM; with IGROV1 ovarian it was greater than 100 µM. For the same compound, the TGI was greater than 100 µM in the assay with LOX IMVI melanoma; 42.5 µM in the assay with MALME-3M melanoma; greater than 100 µM in the assay with MDA-MB-435; greater than 100 µM in the assay with NCI-H226 lung; greater than 100 µM in the assay on NCI-H23 lung; 28 µM with NCI-H522 lung. The TGI in the assay with NCI/ADR-RES ovarian was greater than 100 µM; in the assay on SW-620 colon it was 79.2 µM; in the assay with TK-10 renal, greater than 100 µM; in the assay with UO-31 renal it was greater than 100 µM.

Regarding `Cc1ccc2c(c1)C(=O)C1(C2)Cc2ccc(C)cc2C1=O`, the TGI in the assay on 786-0 renal, in the assay with A549 NSCLC, in the assay on ACHN renal, in the assay with DU-145 prostate, in the assay with HS 578T breast and with IGROV1 ovarian was greater than 100 µM throughout. Besides, the TGI in the assay on LOX IMVI melanoma, in the assay on MALME-3M melanoma, in the assay with MDA-MB-435, with NCI-H23 lung, in the assay on NCI-H522 lung and with NCI/ADR-RES ovarian was greater than 100 µM in each case. Also, the TGI in the assay on OVCAR-3 ovarian, with OVCAR-8 ovarian, with SF-539 CNS, in the assay on SW-620 colon, with TK-10 renal and with UO-31 renal was greater than 100 µM in each case.

Regarding `O=C(Nc1ccccc1)N1CC(CN2CCN(c3ccccc3)CC2)OC1=O` (configuration not stated), the TGI in the assay with 786-0 renal, with A549 NSCLC, in the assay on ACHN renal, in the assay with DU-145 prostate, in the assay on HS 578T breast and in the assay with IGROV1 ovarian was greater than 100 µM throughout. Moreover, the TGI in the assay on LOX IMVI melanoma, in the assay on MALME-3M melanoma, with MDA-MB-435, with NCI-H226 lung, with NCI-H23 lung and in the assay with NCI-H522 lung was greater than 100 µM throughout. In addition, the TGI in the assay on NCI/ADR-RES ovarian, in the assay with SW-620 colon, in the assay on TK-10 renal and in the assay on UO-31 renal was greater than 100 µM each time.

Take `S=c1scc(-c2ccc(Cl)cc2)n1OC1CCCC1`: the TGI is greater than 100 µM with 786-0 renal; greater than 100 µM with A549 NSCLC; 90.4 µM in the assay on ACHN renal; greater than 100 µM in the assay with DU-145 prostate; greater than 100 µM in the assay on HS 578T breast; greater than 100 µM in the assay with IGROV1 ovarian. For the same compound, the TGI is greater than 100 µM in the assay with LOX IMVI melanoma; greater than 100 µM in the assay with MALME-3M melanoma; 79.3 µM with MDA-MB-435; greater than 100 µM in the assay on NCI-H23 lung; 54.2 µM in the assay on NCI-H522 lung; greater than 100 µM with NCI/ADR-RES ovarian. In addition, the TGI with OVCAR-3 ovarian was 74.9 µM; in the assay with OVCAR-8 ovarian, greater than 100 µM; in the assay on SF-539 CNS, 35.5 µM; with SW-620 colon, greater than 100 µM; in the assay on TK-10 renal it was greater than 100 µM; with UO-31 renal, greater than 100 µM.

In the case of `CCOC(=O)c1c(SCC#N)n(-c2ccccc2)c(=S)n(-c2ccccc2)c1=O`, the TGI with 786-0 renal, in the assay on A549 NSCLC, in the assay on ACHN renal, in the assay with DU-145 prostate, in the assay with HS 578T breast and in the assay on IGROV1 ovarian was greater than 100 µM each time. Also, the TGI in the assay with LOX IMVI melanoma, with MALME-3M melanoma, with MDA-MB-435, with NCI-H226 lung, in the assay with NCI-H23 lung and with NCI-H522 lung was greater than 100 µM throughout. The TGI in the assay on NCI/ADR-RES ovarian, with OVCAR-3 ovarian, in the assay with OVCAR-8 ovarian, in the assay on SW-620 colon, in the assay on TK-10 renal and with UO-31 renal was greater than 100 µM in each case.
